From BindingDB's records for doi:10.7270/Q2DZ06SS (Burnham Center For Chemical Genomics, 2011)

Biological target: T1, BRCA1-associated RING domain protein 1 (Homo sapiens, UniProt Q99728)
T1 sequence (Q99728 whole entry): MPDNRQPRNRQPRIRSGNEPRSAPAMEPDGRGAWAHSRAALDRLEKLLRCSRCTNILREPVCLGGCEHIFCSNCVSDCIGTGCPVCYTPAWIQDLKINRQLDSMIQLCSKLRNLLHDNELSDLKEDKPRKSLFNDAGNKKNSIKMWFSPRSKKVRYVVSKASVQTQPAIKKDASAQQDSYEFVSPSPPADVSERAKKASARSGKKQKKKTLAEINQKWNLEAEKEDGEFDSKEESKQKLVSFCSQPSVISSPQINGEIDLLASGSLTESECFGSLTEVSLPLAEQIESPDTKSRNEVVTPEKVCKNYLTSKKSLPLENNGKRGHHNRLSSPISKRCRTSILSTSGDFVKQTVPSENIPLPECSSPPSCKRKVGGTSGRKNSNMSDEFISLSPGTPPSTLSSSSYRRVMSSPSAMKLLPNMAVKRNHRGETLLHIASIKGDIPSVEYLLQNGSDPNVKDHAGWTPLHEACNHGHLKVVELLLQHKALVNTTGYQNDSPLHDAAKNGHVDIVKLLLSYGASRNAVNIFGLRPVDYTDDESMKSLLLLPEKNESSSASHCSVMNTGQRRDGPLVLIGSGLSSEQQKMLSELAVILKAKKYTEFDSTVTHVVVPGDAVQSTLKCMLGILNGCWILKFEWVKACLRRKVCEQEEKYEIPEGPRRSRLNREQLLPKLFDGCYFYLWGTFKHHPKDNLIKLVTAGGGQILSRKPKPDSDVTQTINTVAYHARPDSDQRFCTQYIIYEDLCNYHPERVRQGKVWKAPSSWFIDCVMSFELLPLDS
Assay: Brca1-Bard1 BiLC signal decrease – cell-based, luminescence, counter-screen for Mdm2/MdmX interaction inhibitor project, dose response (AID 504669)

IC50: 5.35 µM
SMILES: Cc1cc(N=NC(C)c2ccccc2O)nc(-c2ccccc2O)n1 (stereo unspecified)
